In patent US11034658B2, “Pyridinyl pyrazoles as modulators of RORγT” (Janssen Pharmaceutica NV, priority 2018, dated 2021):

Experiments:
[1] = target: human RORγt ligand binding domain (RORγt LBD) (Homo sapiens (Human), UniProt P51449); assay: RORγt ThermoFluor assay
[2] = target: full-length human RORγt (GAL4-DBD-RORγt fusion) in HEK293T cells (Homo sapiens (Human), UniProt P51449); assay: RORγt (full-length human) reporter assay, conditions A or B; format: cell-based; settings: for IC50: HEK293T cells, read-out: RORγt (FL) Reporter Assay A or B, IC50; for inhibition at 3 µM: HEK-293T, 3 μM compound concentration (footnote *), read-out: RORγt (FL) Reporter Assay A or B, % inhibition
Procedure, shortened: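 HEK293T cells expressing GAL4-DBD-RORγt fusion (96- or 384-well formats, DMEM/10% FBS) exposed to compound overnight (16–20 h). Firefly luciferase normalized to DMSO and saturating reference compound, then to Renilla; IC50 from dose curve, % inhibition versus DMSO.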

[3] = system: IL-17 production by human CD4+ T cells under Th17 differentiation; assay: Human Th17 assay (IL-17 production by CD4 T cells); format: cell-based; settings: 72 h, IL-17 after 3 days
From the text: The human Th17 assay tests the effect of RORγt modulatory compounds on IL-17 production by CD4 T cells under conditions which favor Th17 differentiation. Total CD4^+ T cells were isolated from the peripheral blood mononuclear cells (PBMC) of healthy donors using a CD4^+ T cell isolation kit II, following the manufacturer's instructions (Miltenyi Biotec). Cells were resuspended in a medium of RPMI-1640 supplemented with 10% fetal bovine serum, penicillin, streptomycin, glutamate, and β-mercaptoethanol and were added to 96-well plates at 1.5×10^5 per 100 μL per well. 50 μL of compound at titrated concentrations in DMSO were added into each well at final DMSO concentration at 0.2%. Cells were incubated for 1 hour, then 50 μL of Th17 cell differentiation medium was added to each well. The final concentrations of antibodies and cytokines (R&D Systems) in differentiation medium were: 3×10^6/mL anti-CD3/CD28 beads (prepared using human T cell activation/expansion kit, Miltenyi Biotec), 10 μg/mL anti-IL4, 10 μg/mL anti-IFNγ, 10 ng/mL IL1β, 10 ng/mL IL23, 50 ng/mL IL6, 3 ng/mL TGFβ and 20 U/mL IL2. Cells were cultured at 37° C. and 5% CO2 for 3 days. Supernatants were collected and the accumulated IL-17 in culture was measured by using MULTI-SPOT® Cytokine Plate following manufacture's instruction (Meso Scale Discovery). The plate was read using Sector Imager 6000, and IL-17 concentration was extrapolated from the standard curve. The IC50s were determined by GraphPad.

full-length human RORγt (GAL4-DBD-RORγt fusion) in HEK293T cells, sequence (P51449 other isoform, or with tags, fused parts or gaps): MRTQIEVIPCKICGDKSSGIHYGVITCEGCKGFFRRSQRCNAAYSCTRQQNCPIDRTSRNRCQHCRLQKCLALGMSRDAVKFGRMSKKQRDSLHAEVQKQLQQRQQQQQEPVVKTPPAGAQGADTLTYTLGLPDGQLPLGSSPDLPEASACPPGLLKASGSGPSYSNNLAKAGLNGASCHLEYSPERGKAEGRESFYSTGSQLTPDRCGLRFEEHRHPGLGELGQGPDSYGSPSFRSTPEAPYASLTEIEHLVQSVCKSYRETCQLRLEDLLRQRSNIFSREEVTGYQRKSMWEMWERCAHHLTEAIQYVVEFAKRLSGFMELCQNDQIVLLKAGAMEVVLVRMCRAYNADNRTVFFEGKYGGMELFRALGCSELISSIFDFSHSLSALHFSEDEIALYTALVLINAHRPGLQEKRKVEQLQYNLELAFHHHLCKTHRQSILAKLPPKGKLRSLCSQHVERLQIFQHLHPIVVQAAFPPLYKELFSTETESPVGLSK
human RORγt ligand binding domain (RORγt LBD), sequence (P51449 other isoform, or with tags, fused parts or gaps): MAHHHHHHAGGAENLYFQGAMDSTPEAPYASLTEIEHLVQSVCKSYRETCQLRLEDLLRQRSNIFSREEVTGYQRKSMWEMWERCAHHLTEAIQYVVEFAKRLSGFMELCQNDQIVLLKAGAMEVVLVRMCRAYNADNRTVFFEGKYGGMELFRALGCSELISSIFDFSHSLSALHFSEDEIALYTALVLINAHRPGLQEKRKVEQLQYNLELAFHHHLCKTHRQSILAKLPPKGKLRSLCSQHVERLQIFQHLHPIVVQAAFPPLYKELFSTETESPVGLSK

Row | Kd [1] [µM] | IC50 [2] [µM] | inhibition at 3 µM [2] [%] | IC50 [3] [µM] | SMILES
1 | 0.02 | 0.34 | 43 | 0.45 | CCc1cc(C[C@@H](C)C(F)(F)F)ncc1-c1c(Cl)c(C(=O)NC[C@H]2CC[C@H](S(C)(=O)=O)CC2)nn1CC (relative stereo) [Example 57, 4-Chloro-1-ethyl-5-(4-ethyl-6-((R*)-3,3,3-trifluoro-2-methylpropyl)pyridin-3-yl)-N-((1r,4R)-4-(methylsulfonyl)cyclohexyl)methyl)-1H-pyrazole-3-carboxamide]
2 | 0.0035 | 0.021 | 98 | 0.034 | CCn1nc(C(=O)NC[C@H]2CC[C@H](S(C)(=O)=O)CC2)c(Cl)c1-c1cnc(CC(C)(C)C(F)F)cc1OC(F)F [Example 37, 4-Chloro-5-(6-(3,3-difluoro-2,2-dimethylpropyl)-4-(difluoromethoxy)pyridin-3-yl)-1-ethyl-N-(((1r,4r)-4-(methylsulfonyl)cyclohexyl)methyl)-1H-pyrazole-3-carboxamide]
3 | 0.011 | 0.056 | 100 | 0.051 | CCn1nc(C(=O)NC[C@]2(O)CC[C@@H](S(C)(=O)=O)CC2)c(C)c1-c1cnc(CC(C)(C)C(F)(F)F)cc1OC(F)F [Example 8, 5-(4-(Difluoromethoxy)-6-(3,3,3-trifluoro-2,2-dimethylpropyl)pyridin-3-yl)-1-ethyl-N-(((1s,4s)-1-hydroxy-4-(methylsulfonyl)cyclohexyl)methyl)-4-methyl-1H-pyrazole-3-carboxamide]
4 | 0.024 | 0.36 | 39 | 0.21 | CCn1nc(C(=O)NC[C@H]2CC[C@H](S(C)(=O)=O)CC2)c(C)c1-c1cnc(CC(C)(C)C(F)(F)F)cc1C(F)F [Example 29, 5-(4-(Difluoromethyl)-6-(3,3,3-trifluoro-2,2-dimethylpropyl)pyridin-3-yl)-1-ethyl-4-methyl-N-(((1r,4r)-4-(methylsulfonyl)cyclohexyl)methyl)-1H-pyrazole-3-carboxamide]
5 | 0.0022 | 0.011 | 91 | 0.038 | CCn1nc(C(=O)NC[C@H]2CC[C@H](S(C)(=O)=O)CC2)c(C)c1-c1cnc(CC(C)(C)C(F)(F)F)cc1OC(F)F [Example 13, 5-(4-(Difluoromethoxy)-6-(3,3,3-trifluoro-2,2-dimethylpropyl)pyridin-3-yl)-1-ethyl-4-methyl-N-(((1r,4r)-4-(methylsulfonyl)cyclohexyl)methyl)-1H-pyrazole-3-carboxamide]
6 | 0.00075 | 0.0081 | 117 | 0.011 | CCn1nc(C(=O)NC[C@H]2CC[C@H](S(C)(=O)=O)CC2)c(Cl)c1-c1cnc(CC(C)(C)C(F)(F)F)cc1OC(F)F [Example 9, 4-Chloro-5-(4-(difluoromethoxy)-6-(3,3,3-trifluoro-2,2-dimethylpropyl)pyridin-3-yl)-1-ethyl-N-(((1r,4r)-4-(methylsulfonyl)cyclohexyl)methyl)-1H-pyrazole-3-carboxamide]
7 | 0.12 | 2.3 | 30 | 0.37 | CCc1cc(C[C@@H](C)C(F)(F)F)ncc1-c1c(Cl)c(C(=O)NC[C@]2(O)CC[C@@H](S(C)(=O)=O)CC2)nn1CC (single isomer, unassigned) [Example 56, 4-Chloro-1-ethyl-5-(4-ethyl-6-((R*)-3,3,3-trifluoro-2-methylpropyl)pyridin-3-yl)-N-(((1s,4S)-1-hydroxy-4-(methylsulfonyl)cyclohexyl)methyl)-1H-pyrazole-3-carboxamide]
